Holding throughout (assay): NCI anticancer screen, dose series, 48 h
In test [1] the test system is DMS 273 small cell lung.
The test system of test [2] is SNB-78 CNS.
The test system of test [3] is DMS 114 small cell lung.
Test [4] has as its system HOP-18 NSCLC.
Test [5] deals with M19-MEL melanoma.
Test [6] has as its system LXFL 529 NSCLC.
The test system of test [7] is T-47D breast.
The test system of test [8] is MDA-MB-435.
For test [9], the system named is MCF7 breast.
The test system of test [10] is BT-549 breast.

SMILES strings stand for the structures.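 48-hour exposure; five concentrations; linearly interpolated endpoints. At the GI50, growth is halved. TGI is the concentration that stops growth completely.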 Where a SMILES comes first, the peptide text is derived from it. [ ]: non-standard residue; d: D form. 2Nal = N[CH](Cc1ccc2ccccc2c1)C(=O)O

For the molecule `COC(=O)C(=O)C(C(=O)C=C(C)C)C(=O)C(=O)Nc1nc2ccc([N+](=O)[O-])cc2s1` (stereo unspecified), the TGI was above 100 µM in [1]; above 100 µM in test [2]; above 100 µM in test [3]; 54.6 µM in [4]; above 100 µM in test [5]; above 100 µM in [6].
Turning to `O=C(O)CCSC(=S)Nc1cccc(F)c1`, the TGI in [1] was above 100 µM; in test [2], above 100 µM; in test [3], 51.8 µM; in test [4], above 100 µM; in [5], 88.8 µM; in [6], above 100 µM.
Regarding `N#Cc1cc(NC(=O)c2ccccc2)c(=O)n2c1[nH]c1ccccc12`, the TGI is above 100 µM in [1]; above 100 µM in test [2]; 95.5 µM in test [3]; above 100 µM in [4]; above 100 µM in [5]; above 100 µM in test [6].
On to `Cc1ccc(/C=C(\C#N)c2ccccc2)cc1`, for which the TGI in [1], in [2], in test [3], in test [4], in test [5] and in test [6] was above 100 µM throughout.
On to `C=C1C(=O)OC2C1C(OC(=O)/C(C)=C\C)CC1(CO1)C1C(O)C=C(C)C21O` (stereo unspecified), for which the TGI in [1] came to 20 µM; in test [2], 34.9 µM; in test [3] it was 20.6 µM; in test [4] it was 23.3 µM; in test [5], 25.4 µM; in [6] it was 3.42 µM.
On to `COc1ccc(C[C@H](N)C(=O)N2C[C@@H](CO)C[C@@H](n3cnc4c(N(C)C)ncnc43)C2)cc1`, for which the TGI in [1], in [2], in test [3], in [4], in [5] and in [6] was above 100 µM in each case.
As for `O=C(c1ccccc1)c1c(CC(O)c2ccccc2)n(C(=O)c2ccccc2)c2ccccc12` (stereo unspecified), the TGI in test [1], in test [3], in test [5] and in test [6] was above 100 µM each time.
With `O=C(O)CCSC(=O)Nc1ccccc1Cl`, the TGI in test [1], in [2], in test [3], in test [4], in test [5] and in test [6] was above 100 µM each time.
On to `CN(C)CCC1(C2=CCCC2)CC/C(=C\c2ccccc2Cl)C1=O` (stereo unspecified), for which the TGI in test [2] amounted to 29 µM; in test [3] it was 29.5 µM; in test [4] it was 24.8 µM; in [5], 54.1 µM; in test [6] it was 23.9 µM.
For `CCOC(=O)NC(=O)c1cn(CCN2CCNCC2)c(=O)[nH]c1=O`, in that order: above 100 µM, above 100 µM, above 100 µM, above 100 µM and above 100 µM.
Regarding `CC(C)C(NC(=O)C(CCCCN)NC(=O)C(Cc1c[nH]c2ccccc12)NC(=O)C(Cc1ccc(O)cc1)NC(=O)C(CS)NC(=O)C(N)Cc1ccc2ccccc2c1)C(=O)NC(CS)C(=O)NC(C(N)=O)C(C)O` (stereo unspecified) (H-[2Nal]CYWKVCT-NH2; configuration not given here), the TGI is above 12.5 µM in test [7]; above 100 µM in [1]; 23.2 µM in test [2]; above 100 µM in test [3]; above 100 µM in test [4]; above 12.5 µM in test [8]. Further, the TGI was above 100 µM in [5], above 12.5 µM in test [9] and above 100 µM in test [6].
For `C#CCN(N=O)C(=O)NCCCC(NC(C)=O)C(=O)NCc1ccccc1` (stereo unspecified), the TGI in test [2], in test [3], in test [4], in test [5] and in test [6] was above 100 µM each time.
For `COC(=O)C(C(=O)C(=O)Nc1ccc(OC)cc1[N+](=O)[O-])c1nc2cc(C)c(C)cc2[nH]c1=O` (stereo unspecified), the TGI in test [2], in test [3], in test [4], in [5] and in [6] was above 100 µM each time.
On to `O=C(O)CC1CC=C[C@H]2c3cc4c(cc3C(=O)NC12)OCO4` (stereo partly specified), for which the TGI in [1], in [2], in test [3], in test [5] and in [6] was above 75 µM each time.
`COCOCC[C@@H]1CC=CC(NC(=O)OCc2ccccc2)C1/C=C/C(=O)CCC1OCCO1` (stereo partly specified): the TGI was above 59.1 µM in test [1]; above 100 µM in test [2]; 86.5 µM in test [3]; above 100 µM in test [4]; 43.3 µM in test [5]; 73 µM in test [6].
Take `Nc1ccc2c(c1)Oc1c(F)c(F)cc3c(=O)c(C(=O)O)cn-2c13`: the TGI in test [3], in [4], in test [5] and in [6] was above 100 µM throughout.
On to `Cc1nc(Nc2ccccc2)sc1C(=O)CC(=O)C(=O)NC12CC3CC(CC(C3)C1)C2`, for which the TGI in [1], in test [2], in test [3], in [4], in [5] and in [6] was above 100 µM each time.
Turning to `COc1cc(CC(C(=O)O)C(=O)O)c(OC)cc1CC(C(=O)O)C(=O)O`, the TGI in test [1], in test [2], in test [3], in [5] and in test [6] was above 100 µM in each case.
In the case of `O=C1C2ON3c4ccccc4C(=O)C3(c3ccccc3)C2C(=O)N1c1ccccc1` (stereo unspecified), the TGI in [1], in test [2], in test [4], in [5] and in [6] was above 100 µM each time.
As for `CCCCCCCCCCCCCC(=O)OCC1OC(n2cc(F)c(=O)[nH]c2=O)C(N)C(OC(=O)CCCCCCCCCCCCC)C1O` (stereo unspecified), the TGI in test [1], in test [2], in test [3], in [5] and in test [6] was above 100 µM in each case.
Regarding `OC1CCC[C@@H]1Sc1ccccc1` (stereo partly specified), the TGI in test [1], in test [2], in test [3], in test [5] and in test [6] was above 100 µM each time.
As for `NC(=Nc1nc(-c2ccccn2)cc2ccccc12)c1ccccn1`, the GI50 in test [7] is 0.00636 µM; in [1] it was 0.0231 µM; in test [10], 0.197 µM; in test [4], 0.258 µM; in [8] it was 0.283 µM; in [5] it was 0.199 µM. Further, in [9], the GI50 is 0.148 µM. The TGI in [10] is above 100 µM; in test [2], above 100 µM; in [4], 27.1 µM; in [8] it was above 100 µM; in test [5], 0.953 µM; in test [9] it was above 100 µM. The molecule further displayed a TGI in test [6] above 100 µM.
As to `CCCCCCCCCOC(=S)NCCCCC`, the TGI in test [1] is 58.3 µM; in test [2], above 100 µM; in test [3] it was 47.4 µM; in [4], above 100 µM; in [5] it was above 100 µM; in test [6], above 100 µM.
Regarding `Cn1nc(-c2ccccc2)c(C(=O)/C=C/c2ccc(F)cc2)c(N2CCOCC2)c1=O`, the TGI was determined as 53 µM in test [1]; 33.4 µM in [3]; 37.3 µM in test [4]; 39 µM in [5]; 30.9 µM in test [6].
`Cc1cc(C)nc(NS(=O)(=O)c2ccc(NC(=O)c3ccc(Cl)c4c(Nc5ccc(S(=O)(=O)N=C(N)N)cc5)c5ccccc5nc34)cc2)n1`: the TGI in test [1] was above 100 µM; in [2], above 100 µM; in test [3] it was 93.6 µM; in test [4], above 100 µM; in test [6], above 100 µM.
With `CC1=NN(C(=O)c2ccc(Cl)cc2)C(=O)/C1=C/c1ccco1`, the TGI in [2], in test [3], in [5] and in [6] was above 100 µM throughout.
Take `CC(=O)O/N=C(Cl)/C(Cl)=N/OC(C)=O`: the TGI in test [1], in [2], in test [3], in test [4] and in test [6] was above 100 µM in each case.
Consider `COc1cc2c(cc1OC)c1c(OC)c(OC)cc3c1c1c2sc(=S)n1CC3`, for which the TGI in test [1] was above 100 µM; in [2], above 100 µM; in [3], 98.1 µM; in [4], above 100 µM; in test [5], above 100 µM; in test [6], above 100 µM.
With `COc1cc(/C=C\c2ccc(OC(C)=O)cc2)cc(OC)c1OC`, the TGI in [1] was above 100 µM; in [2] it was 84.1 µM; in test [3], above 100 µM; in [5], above 100 µM; in [6], above 100 µM.
Turning to `CCOC(=O)C1SC(=Nc2ccc(Cl)cc2C)N=C1C` (stereo unspecified), the TGI in [1] is 66.9 µM; in test [2] it was 76.7 µM; in test [3] it was 35.3 µM; in test [4], above 100 µM; in test [5], 43.7 µM; in [6], 45.6 µM.
Regarding `CC(=N)N(C)O`, the TGI is above 100 µM in [2]; 33.2 µM in test [3]; above 100 µM in test [4]; above 100 µM in test [5]; above 100 µM in [6].
On to `CCOC(=O)c1cc(-c2ccc(OC)c(OC)c2)[nH]c1N/N=C/c1c(Cl)cccc1Cl`, for which the GI50 in test [7] was 5.98 µM; in [10] it was 2.49 µM; in [8], 0.307 µM; in test [9] it was 0.415 µM. Besides, the TGI is 55.4 µM in [7], 12.5 µM in test [10], 0.829 µM in test [8] and 17.8 µM in test [9].
As to `CCC[CH2][Sn]([CH2]CCC)([O]C(=O)c1cc(F)cc(F)c1)[O][Sn]([CH2]CCC)([CH2]CCC)[O]C(=O)c1cc(F)cc(F)c1`, the GI50 in test [1] is 1.23 µM; in test [2] it was 0.584 µM; in [3] it was 0.379 µM; in test [4] it was 1.96 µM; in [5], 0.519 µM; in [6], 0.152 µM. For the same molecule, the TGI in test [1] came out at 2.47 µM; in test [2], 2.29 µM; in [3] it was 1.53 µM; in [4] it was 3.38 µM; in [5], 2 µM; in test [6] it was 0.612 µM.
For `O=C1[C@H](Cl)[C@H]2c3cc4ccccc4nc3Oc3ccccc3N12`, the TGI in test [1] was above 100 µM; in [3], 70.2 µM; in [5], above 100 µM; in test [6], above 100 µM.
Consider `NNC(=O)N/N=C1\C(=O)N(c2nccs2)C(=O)C(=O)C1c1nc2ccccc2s1` (stereo unspecified), for which the TGI in test [1] is above 100 µM; in test [2] it was above 100 µM; in test [3], above 100 µM; in [4], 88.5 µM; in [5], above 100 µM; in test [6] it was above 100 µM.
`CC(=O)ON(C(C)=O)C1C(COC(c2ccccc2)(c2ccccc2)c2ccccc2)OC2OC3(CCCC3)OC21` (stereo unspecified): the TGI in test [1], in test [3], in test [4] and in test [5] was above 100 µM throughout.
Consider `CC1CCc2c(c(CC3CC(=O)NC(=O)C3)nn2-c2ccccc2)C1` (stereo unspecified), for which the TGI in test [7], in [10], in test [8] and in [9] was above 100 µM in each case.
For `C/C(CCn1[nH]c(=O)ccc1=O)=N\Nc1ccc([N+](=O)[O-])cc1[N+](=O)[O-]`, the TGI in [1], in test [2], in test [3], in [4], in test [5] and in test [6] was above 100 µM each time.
